The text below walks through data of PubChem BioAssay (NCI).

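Method: 48-hour compound exposure of cells in 96-well plates, five concentrations, linear interpolation of endpoints. At the GI50, growth is halved. The concentration for full growth arrest is given as TGI.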 Bounds are passed on as bounds.

Holding throughout (assay): NCI-60 cell line screen, 48 h
Experiment [1] has as its system A549 NSCLC.
Experiment [2] concerns COLO 205 colon.
Experiment [3] concerns EKVX NSCLC.
Experiment [4] concerns HOP-92 NSCLC.
Experiment [5] deals with M14 melanoma.
Experiment [6] has as its system NCI-H522 lung.
Experiment [7] deals with OVCAR-3 ovarian.
For experiment [8], the system named is SK-MEL-2 melanoma.
The subject of experiment [9] is SK-MEL-28 melanoma.

On to `C[C@H]1[C@H](C)CC[C@]2(CO)CC[C@]3(C)C(=CC[C@@H]4[C@@]5(C)CCCNC(C)(C)[C@@H]5CC[C@]43C)[C@H]12`, for which the GI50 in experiment [1] is 1.74 µM; in experiment [2], 1.74 µM; in experiment [3], 1.66 µM; in experiment [4], 1.52 µM; in experiment [5], 1.61 µM; in experiment [6], 1.71 µM. The GI50 is 1.83 µM in [7], 1.9 µM in experiment [8] and 1.75 µM in [9]. Also, the TGI in [1] was determined as 3.28 µM; in experiment [2], 3.46 µM; in [3], 3.29 µM; in experiment [4], 3.19 µM; in [5], 3.12 µM; in [6], 3.32 µM. The TGI is 3.42 µM in [7], 3.63 µM in [8] and 3.3 µM in experiment [9].
As for `CCN(CC)c1c(C(=O)/C=C/c2ccc(OC)cc2)c(-c2ccccc2)nn(C)c1=O`, the TGI in [1] is 81 µM; in experiment [2] it was 9.25 µM; in experiment [3] it was 69.6 µM; in experiment [4], 43.4 µM; in experiment [8] it was 38.7 µM; in [9], 35.7 µM.
As for `CN1C(=Nc2ccccc2)SC1=Nc1ccccc1`, the TGI in experiment [1] was more than 100 µM; in experiment [2] it was more than 100 µM; in [3] it was more than 100 µM; in experiment [4], 58.5 µM; in experiment [5], more than 100 µM; in experiment [6] it was 41.3 µM. For the same compound, the TGI in experiment [7], in [8] and in [9] was more than 100 µM each time.
As to `Oc1ccccc1/C=C/c1csnn1`, the TGI in experiment [1], in [2], in [3], in [4], in experiment [5] and in experiment [6] was more than 100 µM in each case. The TGI in [7], in experiment [8] and in experiment [9] was more than 100 µM throughout.
On to `CC(=O)CC(=O)OC1CC(C)CCC1C(C)C` (stereo unspecified), for which the TGI in [1], in experiment [2], in [3], in experiment [4], in [5] and in [6] was more than 100 µM each time. The TGI in experiment [7] was more than 100 µM; in experiment [8], 78.8 µM; in experiment [9] it was more than 100 µM.
As to `CP1(=O)CCCCC1`, the TGI in [1], in experiment [2], in experiment [3], in [4], in [5] and in experiment [7] was more than 100 µM in each case. In addition, the TGI in [8] and in experiment [9] was more than 100 µM each time.
Consider `Cc1ccc(S(=O)(=O)OC2CSS(=O)CC2OS(=O)(=O)c2ccc(C)cc2)cc1` (stereo unspecified), for which the TGI in experiment [1] stood at 37.9 µM; in [2], 24.1 µM; in [3] it was 35.7 µM; in [4] it was 25.9 µM; in experiment [5], 27.4 µM; in experiment [6] it was 22.6 µM. In addition, the TGI was determined as 31.8 µM in experiment [7] and 29 µM in experiment [9].
For `COc1cc2c(cc1C)NC(=O)/C2=C/c1ccccn1`, the GI50 was 4.11 µM in [1]; 4.23 µM in experiment [2]; 0.0532 µM in experiment [3]; 2.9 µM in [4]; 3.8 µM in experiment [5]; 3.37 µM in experiment [6]. The GI50 was 2.61 µM in experiment [7], more than 100 µM in experiment [8] and 10.5 µM in experiment [9]. Besides, the TGI in experiment [1] was more than 100 µM; in experiment [2], more than 100 µM; in [3], 6.88 µM; in experiment [4] it was 89.4 µM; in experiment [5], more than 100 µM; in experiment [6], more than 100 µM. In addition, the TGI in experiment [7] was 6.81 µM; in experiment [8] it was more than 100 µM; in experiment [9], more than 100 µM.
As to `O=[N+]([O-])c1cc(C(F)(F)F)cc([N+](=O)[O-])c1CCl`, the TGI came out at 24.7 µM in experiment [1]; 4.14 µM in experiment [2]; 13.4 µM in [3]; 19.1 µM in [4]; 1.59 µM in experiment [5]; 0.812 µM in experiment [6]. Besides, the TGI is 10.5 µM in experiment [7], more than 26.7 µM in [8] and 17.9 µM in experiment [9].
Regarding `Nc1ccnc(=O)[nH]1`, the TGI in experiment [1], in experiment [2], in [3], in experiment [4], in experiment [5] and in experiment [6] was more than 100 µM each time. For the same compound, the TGI in [7], in experiment [8] and in [9] was more than 100 µM in each case.
With `COC(=O)/C(C)=C(/CCC1(C)OCCO1)O[Si](C)(C)C`, the TGI in experiment [1], in experiment [2], in experiment [3], in experiment [4], in experiment [5] and in experiment [7] was more than 100 µM in each case. The compound further gave a TGI in experiment [8] of more than 100 µM.
As for `CCOC(=O)N1CCN(C=S)CC1`, the TGI in experiment [1], in experiment [2], in experiment [3], in experiment [5], in experiment [6] and in [7] was more than 100 µM each time. The TGI in experiment [8] and in experiment [9] was more than 100 µM each time.
As for `CCc1cc(C(=O)OC)cn1C(=N)c1ccc(Cl)cc1`, the TGI in experiment [1], in experiment [2], in [3], in experiment [4], in experiment [5] and in experiment [7] was more than 100 µM throughout. Also, the TGI in [8] and in experiment [9] was more than 100 µM each time.
On to `CCC(C)(CC(C)(C)C(=O)NCC(=O)NC(Cc1ccccc1)C(=O)NC(Cc1ccccc1)C(=O)NCC(=O)NC1CC(OC2CC(O)(C(=O)CO)Cc3c(O)c4c(c(O)c32)C(=O)c2c(OC)cccc2C4=O)OC(C)C1O)C(=O)NCC(C)O` (stereo unspecified), for which the GI50 is 102 mg/L in [2]; more than 150 mg/L in [3]; more than 150 mg/L in [4]; 120 mg/L in experiment [5]; 45.5 mg/L in experiment [6]; more than 150 mg/L in experiment [7]. For the same compound, the GI50 is 127 mg/L in [8] and more than 150 mg/L in experiment [9]. The TGI in [2], in experiment [3], in experiment [4], in [5], in experiment [6] and in experiment [7] was more than 150 mg/L each time. In addition, the TGI in experiment [8] and in experiment [9] was more than 150 mg/L each time.
Regarding `Cc1cc(=O)n(-c2ccccc2C)c(C)n1`, the TGI in [1], in [2], in experiment [3], in experiment [4], in experiment [5] and in experiment [6] was more than 100 µM throughout. In addition, the TGI in experiment [7], in experiment [8] and in experiment [9] was more than 100 µM each time.
For `Oc1c(C(Nc2cccc3cccnc23)c2ccccc2)ccc2cccnc12` (stereo unspecified), the TGI was more than 100 µM in experiment [1]; more than 100 µM in experiment [2]; more than 100 µM in experiment [3]; 73.8 µM in experiment [6]; more than 100 µM in [7].
Regarding `COc1ccc(Br)c(N/N=C2\CCCNC2=O)c1`, the TGI in [1] was more than 100 µM; in experiment [2], more than 100 µM; in [3], 78.6 µM; in [4], more than 100 µM; in experiment [5], more than 100 µM; in [6] it was more than 100 µM. Also, the TGI in experiment [7], in [8] and in experiment [9] was more than 100 µM throughout.
For `COc1cc2c(c(OC)c1OC)-c1ccc(SC)c(=O)cc1C(CO)C2` (stereo unspecified), the GI50 in experiment [1], in [2], in experiment [3], in [4], in experiment [5] and in experiment [8] was less than 0.01 µM throughout. The TGI is more than 100 µM in experiment [1]; more than 100 µM in [3]; more than 100 µM in experiment [4]; less than 0.01 µM in [5]; 0.271 µM in experiment [6]; 0.449 µM in experiment [7]. The TGI in experiment [8] is less than 0.01 µM.
With `Cc1ccc2nc(NC(=O)C(=O)C(C#N)c3nc4ccccc4s3)sc2c1` (stereo unspecified), the TGI is 38.4 µM in experiment [2]; more than 100 µM in [3]; 75.3 µM in experiment [4]; more than 100 µM in experiment [5]; more than 100 µM in experiment [6]; 56.3 µM in experiment [7]. Moreover, the TGI in experiment [8] and in [9] was more than 100 µM each time.
As for `CC(C)C1CC[C@@H](C)C[C@@]1(O)CC(N)=O` (stereo partly specified), the TGI in experiment [1], in experiment [2], in experiment [3], in experiment [5], in experiment [6] and in experiment [7] was more than 100 µM each time. Further, the TGI in [8] and in experiment [9] was more than 100 µM throughout.
As for `O=C(O)CNC(=O)c1ccc(-c2ccccc2)cc1`, the TGI in experiment [1], in [2], in experiment [3], in experiment [4], in experiment [5] and in [6] was more than 100 µM each time. The TGI in experiment [7], in experiment [8] and in experiment [9] was more than 100 µM throughout.
As to `O=C([CH-]C(=O)c1ccccc1)c1ccccc1.O=C([CH-]C(=O)c1ccccc1)c1ccccc1.[La+3].[OH-].[OH3+]`, the GI50 in [1] is 20.6 µM; in experiment [2] it was 22.6 µM; in experiment [3] it was 14.3 µM; in [4], 15.3 µM; in experiment [5] it was 16.8 µM; in experiment [6], 3.29 µM. Moreover, the GI50 in experiment [8] is 15.1 µM; in experiment [9], 17.1 µM. Further, the TGI in experiment [1] was 55.2 µM; in experiment [2] it was 61.5 µM; in experiment [3], 51.9 µM; in experiment [4], 38.9 µM; in [5] it was 37.6 µM; in experiment [6], 19.8 µM. The TGI in [8] was 37.8 µM; in [9], 57.2 µM.
Turning to `CCC[CH2][Sn]1([CH2]CCC)[O]C(=O)c2cccnc2[O]1`, the GI50 in [1] was 18.2 µM; in experiment [2], 1.88 µM; in experiment [3] it was 2.54 µM; in [4], 1.01 µM; in [5] it was 3.11 µM; in experiment [6] it was 0.476 µM. Besides, the GI50 was 1.91 µM in experiment [7], 1.71 µM in experiment [8] and 3.92 µM in experiment [9]. In addition, the TGI in [1] stood at 33 µM; in experiment [2], 3.65 µM; in experiment [3] it was 8.04 µM; in experiment [4], 4.63 µM; in experiment [5], 10.6 µM; in experiment [6], 1.67 µM. For the same compound, the TGI in experiment [7] came to 8.16 µM; in experiment [8], 3.81 µM; in [9] it was 11.9 µM.
Take `COC1CC(OS(=O)(=O)c2ccc([N+](=O)[O-])cc2)C(OC(=O)c2ccccc2)C(C)O1` (stereo unspecified): the TGI in [1], in experiment [2], in experiment [4], in [5], in [6] and in experiment [7] was more than 100 µM in each case. Moreover, the TGI in experiment [9] was more than 100 µM.
With `CCOc1ccccc1N1C(=O)C(=O)C(c2nc3ccccc3o2)C(=O)C1=O`, the TGI in experiment [1], in experiment [2], in experiment [3], in [4], in experiment [5] and in [6] was more than 100 µM in each case. Also, the TGI in experiment [7], in experiment [8] and in [9] was more than 100 µM throughout.
Take `COc1ccc2n[se]nc2c1`: the TGI in experiment [1], in experiment [2], in experiment [3], in experiment [5], in experiment [6] and in experiment [8] was more than 100 µM each time. The compound further showed a TGI in experiment [9] of more than 100 µM.
As to `O=C1Nc2ccccc2/C1=C/C(=O)c1coc2c1C(=O)c1ccccc1C2=O`, the GI50 was more than 100 µM in experiment [1]; more than 100 µM in experiment [2]; 59.7 µM in experiment [4]; more than 100 µM in experiment [5]; more than 100 µM in experiment [6]; more than 100 µM in experiment [7]. Besides, the GI50 in [8] and in experiment [9] was more than 100 µM throughout. Moreover, the TGI in [1], in experiment [2], in experiment [4], in [5], in experiment [6] and in [7] was more than 100 µM in each case. In addition, the TGI in experiment [8] and in experiment [9] was more than 100 µM throughout.
